Reference: patent US9764046B2, “Labeling composition for intraocular tissue, labeling method of intraocular tissue, and screening method” (CANON KABUSHIKI KAISHA, priority 2008, dated 2017)

Tests used:
[1] = Excitation and fluorescence wavelengths by fluorescence spectrometer FL4500; type: physicochemical; settings: in nm (unit assumed)
[2] = tested on: intraocular tissue (retinal tissue incl. photoreceptor cell layer, vitreous body) of Zebrafish 7-day-old embryo; test: Staining of intraocular tissue of Zebrafish fry by exposure to staining liquid, ocular tissue section observed by confocal microscope; type: in vivo; settings: Zebrafish 7 dpf fry, 1 μg/mL, 1 hour exposure, fixed ocular section
[3] = aqueous solution: 10 mg/mL DMSO solution diluted to 1/500 with purified water (Examples 1 to 94)

Row | Compound | λem (fluorescence wavelength) [1, 3] | λex (excitation wavelength) [1, 3] | Staining ability [2] | λem (fluorescence wavelength) [1] | λex (excitation wavelength) [1] | Stained site [2]
1 | Cn1c(=O)cc2c3c(c(NC4CCCCC4)ccc31)C(=O)c1ccccc1-2 [Compound 1] | 619 | 599 | ++ | – | – | –
2 | CCCCCC(CC)Nc1ccc2c3c(cc(=O)n2C)-c2ccccc2C(=O)c13 (stereo not shown) [Compound 2] | 553 | 486 | +++ | – | – | –
3 | Cn1c(=O)cc2c3c(c(NCc4ccccc4)ccc31)C(=O)c1ccccc1-2 [Compound 3] | 556 | 480 | ++ | – | – | –
4 | O=C1C=Cc2cc(S(=O)(=O)O)cc(S(=O)(=O)O)c2/C1=N/Nc1ccc(S(=O)(=O)O)c2ccccc12 [Compound 4] | 560 | 473 | ++ | – | – | –
5 | Cn1/c(=C/C=C/C2=[N+](CCCS(=O)(=O)[O-])CCS2)oc(=O)/c1=C/C=C1\SCCN1CCCS(=O)(=O)[O-].[Na+] [Compound 14] | – | – | ++ | 617 | 588 | –
6 | CCN1/C(=C\C=C\C2=[N+](CC)c3ccccc3C23CCCCC3)C2(CCCCC2)c2ccccc21.[I-] [Compound 15] | 569 | 496 | +++ | – | – | –
7 | CCC(/C=C1\Oc2ccc(-c3ccccc3)cc2N1CC)=C\c1oc2ccc(-c3ccccc3)cc2[n+]1CC.[I-] [Compound 17] | 564 | 459 | ++ | – | – | 1
8 | CCN(CC)CC.O=S(=O)([O-])CCC[n+]1c(/C=C/C=C2\Sc3ccccc3N2CCCS(=O)(=O)O)sc2ccccc21 [Compound 19] | 576 | 545 | ++ | – | – | 1
9 | CCC(/C=C1\Sc2ccccc2N1CC)=C\c1sc2ccccc2[n+]1CC.[I-] [Compound 20] | 567 | 555 | ++ | – | – | 1
10 | CCC(/C=C1\Sc2c(ccc3ccccc23)N1CC)=C\c1sc2c3ccccc3ccc2[n+]1CC.[I-] [Compound 21] | 377 | 334 | ++ | – | – | –
11 | CCN1C=C/C(=C\C=C\c2oc3ccccc3[n+]2CC)c2ccccc21.[I-] [Compound 22] | 620 | 571 | ++ | – | – | 1
12 | CN(C)c1ccc(/C=C/C=C/c2sc3ccccc3[n+]2CC(=O)O)cc1.[Br-] [Compound 24] | 692 | 609 | ++ | – | – | 1
13 | O=C(O)CN1/C(=C/C2=C(Cl)C(=C/c3sc4ccccc4[n+]3CC(=O)O)/CCC2)Sc2ccccc21.[Br-] [Compound 25] | 671 | 635 | ++ | – | – | 1
14 | CCN1C=C/C(=C\C=C\c2cc[n+](CC)c3ccccc23)c2ccccc21.[I-] [Compound 26] | 715 | 679 | ++ | – | – | 2
15 | CCN1/C(=C/C=C/c2sc3ccccc3[n+]2CC)Sc2ccccc21.[I-] [Compound 27] | 575 | 485 | ++ | – | – | 1
16 | CCCCCN1/C(=C/C=C/c2oc3ccccc3[n+]2CCCCC)Oc2ccccc21.[I-] [Compound 29] | 509 | 474 | ++ | – | – | –
17 | O=C(O)CCN1/C(=C/C2=C(Cl)C(=C/c3sc4ccccc4[n+]3CCC(=O)O)/CCC2)Sc2ccccc21.[I-] [Compound 31] | 664 | 495 | ++ | – | – | 2
18 | CCN1C(=O)/C(=c2\s/c(=C/c3ccc(N(c4ccccc4)c4ccc5c(c4)C(C)(C)c4ccccc4-5)cc3)c(=O)n2CC(=O)O)SC1=S [Compound 32] | 640 | 558 | ++ | – | – | –
19 | CC1(C)c2ccccc2-c2ccc(N(c3ccccc3)c3ccc(/C=C4/SC(=S)N(CC(=O)O)C4=O)cc3)cc21 [Compound 33] | 628 | 512 | ++ | – | – | –
20 | O=C(O)CN1C(=O)/C(=C/c2ccc3c(c2)[C@@H]2CCC[C@@H]2N3c2ccc(C=C(c3ccccc3)c3ccccc3)cc2)SC1=S [Compound 35] | 655 | 535 | ++ | – | – | –
21 | O=C(O)CN1C(=O)/C(=C\c2ccc3c(c2)[C@@H]2CCC[C@@H]2N3c2ccccc2)SC1=S [Compound 37] | 633 | 531 | +++ | – | – | –
22 | O=C(O)CN1C(=O)/C(=C\c2cc(Br)c3c(c2)[C@@H]2CCC[C@@H]2N3c2ccc(Br)cc2)SC1=S [Compound 38] | 609 | 482 | ++ | – | – | –
23 | CCN1S/C(=c2\s/c(=C/c3ccc4c(c3)[C@@H]3CCC[C@@H]3N4Cc3ccccc3)c(=O)n2CC(=O)O)SC1=S [Compound 39] | 657 | 576 | ++ | – | – | –
24 | O=C(O)C1=NN(c2ccccc2)C(=O)/C1=C\c1ccc2c(c1)C1CCCC1N2c1ccc(Cc2ccccc2)cc1 (stereo not shown) [Compound 45] | 586 | 481 | ++ | – | – | –
25 | O=C(O)CCN1C(=O)/C(=C\c2ccc3c(c2)C2CCCC2N3Cc2ccccc2)SC1=S (stereo not shown) [Compound 47] | 611 | 522 | ++ | – | – | –
26 | CCOC(=O)CN1C(=O)/C(=C\c2cc(Br)c3c(c2)C2CCCC2N3c2ccc(Br)cc2)SC1=S (stereo not shown) [Compound 50] | 580 | 482 | ++ | – | – | –
27 | O=C(O)CN1C(=O)/C(=C\c2cc(Br)c3c(c2)C2CCCC2N3Cc2ccccc2)SC1=S (stereo not shown) [Compound 56] | 606 | 486 | ++ | – | – | –
28 | COc1ccc(N2c3ccc(/C=C/c4sc5ccccc5[n+]4CC(=O)O)cc3C3CCCC32)cc1.[Br-] (stereo not shown) [Compound 60] | 677 | 560 | ++ | – | – | 2
29 | O=C(O)C[n+]1c(/C=C/c2ccc3c(c2)C2CCCC2N3c2ccccc2)sc2ccccc21.[Br-] (stereo not shown) [Compound 61] | 636 | 545 | ++ | – | – | –

More lines, main results first:

Row | λem (fluorescence wavelength) [1, 3] | λex (excitation wavelength) [1, 3] | Compound | Staining ability [2] | λem (fluorescence wavelength) [1] | λex (excitation wavelength) [1] | Stained site [2]
30 | 648 | 571 | COc1ccc(N2c3ccc(/C=C4\SC(=S)N(CC(=O)O)C4=O)cc3[C@@H]3CCC[C@@H]32)cc1 [Compound 34] | ++ | – | – | –
31 | 671 | 559 | CCN1C(=S)S/C(=c2/s/c(=C/c3cc(Br)c4c(c3)[C@@H]3CCC[C@@H]3N4c3ccc(Br)cc3)c(=O)n2CC(=O)O)C1=S [Compound 40] | ++ | – | – | –
32 | 679 | 582 | CCN1C(=O)/C(=c2\s/c(=C/c3ccc4c(c3)[C@@H]3CCC[C@@H]3N4c3ccc(OC)cc3)c(=O)n2CC(=O)O)SC1=S [Compound 41] | ++ | – | – | –
33 | 651 | 564 | COc1ccc(N2c3ccc(/C=C4/SC(=S)N(CCC(=O)O)C4=O)cc3C3CCCC32)cc1 (stereo not shown) [Compound 44] | ++ | – | – | –
34 | 649 | 569 | COc1ccc2cc(N3c4ccc(/C=C5\C(=O)N(c6ccc(C(=O)O)cc6)N=C5C)cc4C4CCCC43)ccc2c1 (stereo not shown) [Compound 49] | ++ | – | – | –
35 | 638 | 580 | C=CCN1C(=O)S/C(=c2/s/c(=C/c3ccc4c(c3)C3CCCC3N4c3ccccc3)c(=O)n2CC(=O)OCC)C1=O (stereo not shown) [Compound 51] | ++ | – | – | –
36 | 638 | 580 | CCOC(=O)CN1C(=O)/C(=C\c2ccc3c(c2)C2CCCC2N3c2ccccc2)SC1=S (stereo not shown) [Compound 52] | ++ | – | – | –
37 | 712 | 568 | COc1ccc(N2c3ccc(/C=c4/s/c(=C5/SC(=O)N(Cc6ccccc6)C5=O)n(CC(=O)O)c4=O)cc3C3CCCC32)cc1 (stereo not shown) [Compound 53] | ++ | – | – | –
38 | 647 | 597 | CCOC(=O)Cn1c(=O)/c(=C\c2ccc3c(c2)C2CCCC2N3c2ccc3cc(OC)ccc3c2)s/c1=C1/SC(=O)N(CC)C1=O (stereo not shown) [Compound 54] | ++ | – | – | –
39 | 644 | 502 | CCN1C(=O)S/C(=c2/s/c(=C/c3ccc4c(c3)C3CCCC3N4c3ccccc3)c(=O)n2CC(=O)O)C1=O (stereo not shown) [Compound 55] | ++ | – | – | –
40 | 671 | 590 | CCCCCCCCN1C(=O)S/C(=c2/s/c(=C/c3ccc4c(c3)C3CCCC3N4c3ccc(C=C(c4ccccc4)c4ccccc4)cc3)c(=O)n2CC(=O)OCC)C1=O (stereo not shown) [Compound 57] | ++ | – | – | –
41 | 676 | 546 | CCCCCCCCN1C(=O)S/C(=c2/s/c(=C/c3ccc4c(c3)C3CCCC3N4c3ccc(OC)cc3)c(=O)n2CC(=O)OCC)C1=O (stereo not shown) [Compound 58] | ++ | – | – | –
42 | 625 | 581 | CCCCCCCCN1C(=O)S/C(=c2/s/c(=C/c3ccc4c(c3)C3CCCC3N4c3ccccc3)c(=O)n2CC(=O)OCC)C1=O (stereo not shown) [Compound 59] | ++ | – | – | –
